Legend:
human orexin-1 receptor = target: T1, human orexin-1 receptor (Homo sapiens, UniProt O43613); assay: Intracellular calcium measurements (FLIPR), orexin receptor antagonistic activity; assay type: cell-based; details: CHO cells expressing human orexin-1 receptor; 10 nM orexin-A as agonist; fluo-3 AM calcium signal; read-out: OX1 IC50
T1 construct: expressed in transfected cells; host or cells: CHO cells (grown under G418 selection)
T1 sequence (O43613 1-425): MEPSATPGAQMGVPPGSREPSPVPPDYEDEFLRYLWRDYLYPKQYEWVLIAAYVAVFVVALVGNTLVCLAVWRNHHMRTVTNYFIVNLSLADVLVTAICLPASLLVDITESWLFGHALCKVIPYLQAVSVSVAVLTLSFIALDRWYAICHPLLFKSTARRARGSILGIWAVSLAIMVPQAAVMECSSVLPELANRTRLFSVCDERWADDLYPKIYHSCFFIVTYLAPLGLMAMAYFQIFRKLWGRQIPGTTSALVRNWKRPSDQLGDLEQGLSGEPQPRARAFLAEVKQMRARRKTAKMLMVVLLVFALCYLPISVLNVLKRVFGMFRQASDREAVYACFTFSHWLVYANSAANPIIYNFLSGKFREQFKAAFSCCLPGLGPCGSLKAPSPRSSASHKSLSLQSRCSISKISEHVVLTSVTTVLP
Protocol: (§1) The orexin receptor antagonistic activity of the compounds of formula (I) is determined in accordance with the following experimental method.
(§2) Chinese hamster ovary (CHO) cells expressing the human orexin-1 receptor and the human orexin-2 receptor, respectively, are grown in culture medium (Ham F-12 with L-Glutamine) containing 300 μg/ml G418, 100 U/ml penicillin, 100 μg/ml streptomycin and 10% inactivated fetal calf serum (FCS). The cells are seeded at 80′000 cells/well into 96-well black clear bottom sterile plates (Costar) which have been precoated with 1% gelatine in Hanks' Balanced Salt Solution (HBSS). All reagents are from Gibco BRL. The seeded plates are incubated overnight at 37° C. in 5% CO2.
(§3) Human orexin-A as an agonist is prepared as 1 mM stock solution in methanol:water (1:1), diluted in HBSS containing 0.1% bovine serum albumin (BSA) and 2 mM HEPES for use in the assay at a final concentration of 10 nM.
(§4) Antagonists are prepared as 10 mM stock solution in DMSO, then diluted in 96-well plates, first in DMSO, then in HBSS containing 0.1% bovine serum albumin (BSA) and 2 mM HEPES.
(§5) On the day of the assay, 100 μl of loading medium (HBSS containing 1% FCS, 2 mM HEPES, 5 mM probenecid (Sigma) and 3 μM of the fluorescent calcium indicator fluo-3 AM (1 mM stock solution in DMSO with 10% pluronic acid) (Molecular Probes) is added to each well.
(§6) The 96-well plates are incubated for 60 min at 37° C. in 5% CO2. The loading solution is then aspirated and cells are washed 3 times with 200 μl HBSS containing 2.5 mM probenecid, 0.1% BSA, 2 mM HEPES. 100 μl of that same buffer is left in each well. Within the Fluorescent Imaging Plate Reader (FLIPR, Molecular Devices), antagonists are added to the plate in a volume of 50 μl, incubated for 20 min and finally 100 μl of agonist is added. Fluorescence is measured for each well at 1 second intervals, and the height of each fluorescence peak is compared to the height of the fluorescence peak induced by 10 nM orexin-A with buffer in place of antagonist. For each antagonist, IC50 value (the concentration of compound needed to inhibit 50% of the agonistic response) is determined.

human orexin-2 receptor = target: T2, human orexin-2 receptor (Homo sapiens, UniProt O43614); assay: as above; assay type: cell-based; details: CHO cells expressing human orexin-2 receptor; 10 nM orexin-A as agonist; fluo-3 AM calcium signal; read-out: OX2 IC50
T2 construct: expressed in transfected cells; host or cells: CHO cells (grown under G418 selection)
T2 sequence (O43614 1-444): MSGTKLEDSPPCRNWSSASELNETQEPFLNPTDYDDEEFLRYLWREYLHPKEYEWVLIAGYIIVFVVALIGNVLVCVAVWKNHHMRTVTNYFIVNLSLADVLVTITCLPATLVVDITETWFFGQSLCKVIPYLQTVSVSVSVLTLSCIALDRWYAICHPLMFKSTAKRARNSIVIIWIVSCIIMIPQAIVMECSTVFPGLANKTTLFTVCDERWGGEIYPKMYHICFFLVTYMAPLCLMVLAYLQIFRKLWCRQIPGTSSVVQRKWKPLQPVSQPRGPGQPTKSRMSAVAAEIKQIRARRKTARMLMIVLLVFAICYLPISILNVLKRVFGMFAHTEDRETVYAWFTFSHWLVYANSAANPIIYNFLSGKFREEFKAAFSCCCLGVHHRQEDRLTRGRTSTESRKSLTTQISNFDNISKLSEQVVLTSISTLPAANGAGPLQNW
Protocol: as §1, §2, §3, §4, §5, §6

| SMILES | IC50 (human orexin-1 receptor) [µM] | IC50 (human orexin-2 receptor) [µM] |
| --- | --- | --- |
| Cc1ccc(-c2ccccc2C(=O)N2CC[C@H]2CNC(=O)c2cccc3occc23)cc1C [Example 15, (2S)-Benzofuran-4-carboxylic acid [1-(3′,4′-dimethyl-biphenyl-2-carbonyl)-azetidin-2-ylmethyl]-amide] | 0.07 | 0.011 |
| Cc1cccc(-c2sc(N)nc2C(=O)N2CC[C@H]2CNC(=O)c2c(Cl)nc3sccn23)c1 [Example 22, (2S)-6-Chloro-imidazo[2,1-b]thiazole-5-carboxylic acid [1-(2-amino-5-m-tolyl-thiazole-4-carbonyl)-azetidin-2-ylmethyl]-amide] | 0.01 | 0.005 |
| Cc1nc(C(=O)N2CCC2CNC(=O)c2c(C)nc3sccn23)c(-c2cccc(F)c2)s1 (stereo not drawn) [Example 11, (2RS)-6-Methyl-imidazo[2,1-b]thiazole-5-carboxylic acid{1-[5-(3-fluoro-phenyl)-2-methyl-thiazole-4-carbonyl]-azetidin-2-ylmethyl}-amide] | 0.196 | 0.066 |
| Cc1cccc(-c2sc(C)nc2C(=O)N2CC[C@H]2CNC(=O)c2c(Cl)nc3sccn23)c1 [Example 21, (2S)-6-Chloro-imidazo[2,1-b]thiazole-5-carboxylic acid [1-(2-methyl-5-m-tolyl-thiazole-4-carbonyl)-azetidin-2-ylmethyl]-amide] | 0.041 | 0.007 |
| COc1ccccc1C(=O)N1CC[C@H]1CNC(=O)c1cccc2occc12 [Example 9, (2S)-benzofuran-4-carboxylic acid [1-(2-methoxy-benzoyl)-azetidin-2-ylmethyl]-amide] | 0.088 | 0.122 |
| COc1ccc(-c2sc(C)nc2C(=O)N2CCC2CNC(=O)c2c(C)nc3sccn23)cc1 (stereo not drawn) [Example 28, (2RS)-6-Methyl-imidazo[2,1-b]thiazole-5-carboxylic acid{1-[5-(4-methoxy-phenyl)-2-methyl-thiazole-4-carbonyl]-azetidin-2-ylmethyl}-amide] | 0.089 | 0.011 |

Other lines, results leading:

| IC50 (human orexin-1 receptor) [µM] | IC50 (human orexin-2 receptor) [µM] | SMILES |
| --- | --- | --- |
| 0.075 | 0.025 | Cc1nc(C(=O)N2CCC2CNC(=O)c2c(C)nc3sccn23)c(-c2ccc(Cl)c(Cl)c2)s1 (racemic) [Example 32, (2RS)-6-Methyl-imidazo[2,1-b]thiazole-5-carboxylic acid{1-[5-(3,4-dichloro-phenyl)-2-methyl-thiazole-4-carbonyl]-azetidin-2-ylmethyl}-amide] |
| 0.011 | 0.039 | Cc1cccc(-c2sc(C)nc2C(=O)N2CCC2CNC(=O)c2nc3scc(C)n3c2C)c1 (racemic) [Example 40, (2RS)-3,5-Dimethyl-imidazo[2,1-b]thiazole-6-carboxylic acid [1-(2-methyl-5-m-tolyl-thiazole-4-carbonyl)-azetidin-2-ylmethyl]-amide] |
| 2.01 | 0.102 | Cc1nc(C(=O)N2CCC2CNC(=O)c2c(C)nc3sccn23)c(-c2ccc(F)c(F)c2)s1 (stereo not drawn) [Example 67, (2RS)-6-Methyl-imidazo[2,1-b]thiazole-5-carboxylic acid{1-[5-(3,4-difluoro-phenyl)-2-methyl-thiazole-4-carbonyl]-azetidin-2-ylmethyl}-amide] |
| 0.391 | 0.057 | Cc1cccc(-c2sc(C)nc2C(=O)N2CCC2CNC(=O)c2c(C(F)(F)F)nc3sccn23)c1 (racemic) [Example 50, (2RS)-6-Trifluoromethyl-imidazo[2,1-b]thiazole-5-carboxylic acid [1-(2-methyl-5-m-tolyl-thiazole-4-carbonyl)-azetidin-2-ylmethyl]-amide] |
| 0.085 | 0.041 | Cc1cccc(-c2sc(C)nc2C(=O)N2CCC2CNC(=O)c2nc3sccn3c2C)c1 (racemic) [Example 42, (2RS)-5-Methyl-imidazo[2,1-b]thiazole-6-carboxylic acid [1-(2-methyl-5-m-tolyl-thiazole-4-carbonyl)-azetidin-2-ylmethyl]-amide] |
| 3.1 | 0.013 | Cc1cccc(-c2sc(C)nc2C(=O)N2CCC2CNC(=O)c2cccc3c2OCCN3C)c1 (racemic) [Example 54, (2RS)-4-Methyl-3,4-dihydro-2H-benzo[1,4]oxazine-8-carboxylic acid [1-(2-methyl-5-m-tolyl-thiazole-4-carbonyl)-azetidin-2-ylmethyl]-amide] |
| 1.64 | 0.406 | Cc1cccc(-c2oc(C)nc2C(=O)N2CCC2CNC(=O)c2c(C)nc3sccn23)c1 (stereo not drawn) [Example 83, (2RS)-6-Methyl-imidazo[2,1-b]thiazole-5-carboxylic acid [1-5-(2-methyl-5-m-tolyl-oxazole-4-carbonyl)-azetidin-2-ylmethyl]-amide] |
| 1.2 | 0.019 | Cc1cccc(-c2sc(C)nc2C(=O)N2CCC2CNC(=O)c2cccc3c2OCCC3)c1 (racemic) [Example 57, (2RS)-Chroman-8-carboxylic acid [1-(2-methyl-5-m-tolyl-thiazole-4-carbonyl)-azetidin-2-ylmethyl]-amide] |
| 1.92 | 0.043 | Cc1cccc(-c2sc(C)nc2C(=O)N2CCC2CNC(=O)c2cnc3scc(C)n23)c1 (racemic) [Example 61, (2RS)-3-Methyl-imidazo[2,1-b]thiazole-5-carboxylic acid [1-(2-methyl-5-m-tolyl-thiazole-4-carbonyl)-azetidin-2-ylmethyl]-amide] |

— patent US7994336B2, “Azetidine compounds as orexin receptor antagonists” (Actelion Pharmaceuticals Ltd., priority 2006, dated 2011)
